Results published in patent US11000033B2, “Ketone or oxime compound, and herbicide” (NISSAN CHEMICAL CORPORATION, priority 2014, dated 2021).

Tests used:
Format in all cases: in vivo
[1] = tested on: Echinochloa crus-galli var. crus-galli; assay: Test Example 3: herbicidal effect by foliage application, Wagner pot (symbol H); details: application herbicide amount 320 g/ha
Summary of the method: (§1)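 Foliar spray of a water-diluted emulsion at a predetermined herbicide amount, applied to 14-day-old plants. Seedlings were raised in flooded alluvial soil (0.1–0.5 cm water) at 25–30 °C in a greenhouse. Injury was rated after 3 weeks against fixed criteria.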

[2] = tested on: Leptochloa chinensis; assay: Test Example 3: herbicidal effect by foliage application, Wagner pot (symbol D); details: application herbicide amount 320 g/ha
Summary of the method: as §1

[3] = tested on: Cyperus difformis; assay: Test Example 3: herbicidal effect by foliage application, Wagner pot (symbol E); details: application herbicide amount 320 g/ha
Summary of the method: as §1

[4] = tested on: directly sowed rice plant; assay: Test Example 3: effect on crop by foliage application, Wagner pot (symbol b); details: application herbicide amount 320 g/ha
Summary of the method: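 Alluvial soil in a 1/10000-are Wagner pot was flooded to a water depth of 0.1–0.5 cm. Echinochloa crus-galli var. crus-galli, Leptochloa chinensis, Cyperus difformis and rice were sown into it and grown in a greenhouse at 25–30 °C.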

[5] = tested on: Digitaria ciliaris; assay: Test Example 5: herbicidal effect by foliage application, plastic box (symbol F); details: 320 g/ha, 3 weeks after application
Summary of the method: (§2)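 Greenhouse foliar test: seedlings at 14 days, grown 25° C. to 30° C. in sterilized diluvial soil; compound applied as an aqueous dilution of an emulsion; response read 3 weeks after spraying.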

[6] = tested on: Setaria viridis; assay: Test Example 5: herbicidal effect by foliage application, plastic box (symbol G); details: 320 g/ha, 3 weeks after application
Summary of the method: as §2

[7] = tested on: Echinochloa crus-galli var. crus-galli; assay: Test Example 5: herbicidal effect by foliage application, plastic box (symbol H); details: 320 g/ha, 3 weeks after application
Summary of the method: as §2

[8] = tested on: Avena fatua; assay: Test Example 5: herbicidal effect by foliage application, plastic box (symbol I); details: 320 g/ha, 3 weeks after application
Summary of the method: as §2

[9] = tested on: Alopecurus myosuroides; assay: Test Example 5: herbicidal effect by foliage application, plastic box (symbol J); details: 320 g/ha, 3 weeks after application
Summary of the method: as §2

[10] = tested on: Lolium multiflorum Lam.; assay: Test Example 5: herbicidal effect by foliage application, plastic box (symbol K); details: 320 g/ha, 3 weeks after application
Summary of the method: as §2

[11] = tested on: Apera spica-venti; assay: Test Example 5: herbicidal effect by foliage application, plastic box (symbol L); details: 320 g/ha, 3 weeks after application
Summary of the method: as §2

[12] = tested on: Abutilon theophrasti; assay: Test Example 5: herbicidal effect by foliage application, plastic box (symbol M); details: 320 g/ha, 3 weeks after application
Summary of the method: as §2

[13] = tested on: Amaranthus retroflexus; assay: Test Example 5: herbicidal effect by foliage application, plastic box (symbol N); details: 320 g/ha, 3 weeks after application
Summary of the method: as §2

[14] = tested on: Chenopodium album; assay: Test Example 5: herbicidal effect by foliage application, plastic box (symbol O); details: 320 g/ha, 3 weeks after application
Summary of the method: as §2

[15] = tested on: Stellaria media; assay: Test Example 5: herbicidal effect by foliage application, plastic box (symbol P); details: 320 g/ha, 3 weeks after application
Summary of the method: as §2

[16] = tested on: Galium spurium; assay: Test Example 5: herbicidal effect by foliage application, plastic box (symbol Q); details: 320 g/ha, 3 weeks after application
Summary of the method: as §2

[17] = tested on: Veronica persica; assay: Test Example 5: herbicidal effect by foliage application, plastic box (symbol R); details: 320 g/ha, 3 weeks after application
Summary of the method: as §2

[18] = tested on: corn; assay: Test Example 5: effect on crop by foliage application, plastic box (symbol c); details: 320 g/ha, 3 weeks after application
Summary of the method: (§3)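 Greenhouse test at 25° C. to 30° C. Seeds of crops and weeds were spot-sown in boxes of sterilized diluvial soil under roughly 1.5 cm soil cover, then grown for foliage treatment.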

[19] = tested on: soybean; assay: Test Example 5: effect on crop by foliage application, plastic box (symbol d); details: 320 g/ha, 3 weeks after application
Summary of the method: as §3

[20] = tested on: rice plant; assay: Test Example 5: effect on crop by foliage application, plastic box (symbol b); details: 320 g/ha, 3 weeks after application
Summary of the method: as §3

[21] = tested on: wheat; assay: Test Example 5: effect on crop by foliage application, plastic box (symbol e); details: 320 g/ha, 3 weeks after application
Summary of the method: as §3

[22] = tested on: beet; assay: Test Example 5: effect on crop by foliage application, plastic box (symbol f); details: 320 g/ha, 3 weeks after application
Summary of the method: as §3

[23] = tested on: rapeseed; assay: Test Example 5: effect on crop by foliage application, plastic box (symbol g); details: 320 g/ha, 3 weeks after application
Summary of the method: as §3

Row | Structure (SMILES) | herbicidal effect on H (Echinochloa crus-galli var. crus-galli), grade 0-5 [1] | herbicidal effect on D (Leptochloa chinensis), grade 0-5 [2] | herbicidal effect on E, grade 0-5 [3] | effect on crop b (directly sowed rice plant), grade 0-5 [4] | F: Digitaria ciliaris, herbicidal effect (criteria of Test Example 1) [5] | G: Setaria viridis, herbicidal effect (criteria of Test Example 1) [6] | H: Echinochloa crus-galli var. crus-galli, herbicidal effect (criteria of Test Example 1) [7] | I: Avena fatua, herbicidal effect (criteria of Test Example 1) [8] | J: Alopecurus myosuroides, herbicidal effect (criteria of Test Example 1) [9] | K: Lolium multiflorum Lam., herbicidal effect (criteria of Test Example 1) [10] | L: Apera spica-venti, herbicidal effect (criteria of Test Example 1) [11] | M: Abutilon theophrasti, herbicidal effect (criteria of Test Example 1) [12] | N: Amaranthus retroflexus, herbicidal effect (criteria of Test Example 1) [13] | O: Chenopodium album, herbicidal effect (criteria of Test Example 1) [14] | P: Stellaria media, herbicidal effect (criteria of Test Example 1) [15] | Q: Galium spurium, herbicidal effect (criteria of Test Example 1) [16] | R: Veronica persica, herbicidal effect (criteria of Test Example 1) [17] | c: corn, effect on crop (criteria of Test Example 1) [18] | d: soybean, effect on crop (criteria of Test Example 1) [19] | b: directly sowed rice plant, effect on crop (criteria of Test Example 1) [20] | other results
1 | CON=C(C)CC1CC(OC)=C(c2c(C)cc(C=Cc3ccccc3)cc2C)C1=O (stereo not shown) [6-068] | 0 (Herbicidal ratio of 5% or lower (almost no effect)) | 2 (Herbicidal ratio of 20% or higher and lower than 40%) | 0 (Herbicidal ratio of 5% or lower (almost no effect)) | 0 (Herbicidal ratio of 5% or lower (almost no effect)) | 0 (Herbicidal ratio of 5% or lower (almost no effect)) | 3 (Herbicidal ratio of 40% or higher and lower than 70%) | 3 (Herbicidal ratio of 40% or higher and lower than 70%) | 0 (Herbicidal ratio of 5% or lower (almost no effect)) | 0 (Herbicidal ratio of 5% or lower (almost no effect)) | 0 (Herbicidal ratio of 5% or lower (almost no effect)) | 0 (Herbicidal ratio of 5% or lower (almost no effect)) | 0 (Herbicidal ratio of 5% or lower (almost no effect)) | 0 (Herbicidal ratio of 5% or lower (almost no effect)) | 0 (Herbicidal ratio of 5% or lower (almost no effect)) | 2 (Herbicidal ratio of 20% or higher and lower than 40%) | 0 (Herbicidal ratio of 5% or lower (almost no effect)) | 0 (Herbicidal ratio of 5% or lower (almost no effect)) | 4 (Herbicidal ratio of 70% or higher and lower than 90%) | 0 (Herbicidal ratio of 5% or lower (almost no effect)) | 1 (Herbicidal ratio of 5% or higher and lower than 20%) | e: wheat, effect on crop (criteria of Test Example 1) [21]: 0 (Herbicidal ratio of 5% or lower (almost no effect)); f: beet, effect on crop (criteria of Test Example 1) [22]: 0 (Herbicidal ratio of 5% or lower (almost no effect)); g: rapeseed, effect on crop (criteria of Test Example 1) [23]: 2 (Herbicidal ratio of 20% or higher and lower than 40%)
2 | CC(=O)CC1CC(O)=C(c2c(C)cc(-n3ccnc3)cc2C)C1=O (stereo not shown) [7-025] | 1 (Herbicidal ratio of 5% or higher and lower than 20%) | 3 (Herbicidal ratio of 40% or higher and lower than 70%) | 0 (Herbicidal ratio of 5% or lower (almost no effect)) | 0 (Herbicidal ratio of 5% or lower (almost no effect)) | 3 (Herbicidal ratio of 40% or higher and lower than 70%) | 0 (Herbicidal ratio of 5% or lower (almost no effect)) | 0 (Herbicidal ratio of 5% or lower (almost no effect)) | 0 (Herbicidal ratio of 5% or lower (almost no effect)) | 0 (Herbicidal ratio of 5% or lower (almost no effect)) | 0 (Herbicidal ratio of 5% or lower (almost no effect)) | 0 (Herbicidal ratio of 5% or lower (almost no effect)) | 0 (Herbicidal ratio of 5% or lower (almost no effect)) | 0 (Herbicidal ratio of 5% or lower (almost no effect)) | 0 (Herbicidal ratio of 5% or lower (almost no effect)) | 0 (Herbicidal ratio of 5% or lower (almost no effect)) | 0 (Herbicidal ratio of 5% or lower (almost no effect)) | 0 (Herbicidal ratio of 5% or lower (almost no effect)) | 0 (Herbicidal ratio of 5% or lower (almost no effect)) | 0 (Herbicidal ratio of 5% or lower (almost no effect)) | 0 (Herbicidal ratio of 5% or lower (almost no effect)) | e: wheat, effect on crop (criteria of Test Example 1) [21]: 0 (Herbicidal ratio of 5% or lower (almost no effect)); f: beet, effect on crop (criteria of Test Example 1) [22]: 0 (Herbicidal ratio of 5% or lower (almost no effect)); g: rapeseed, effect on crop (criteria of Test Example 1) [23]: 0 (Herbicidal ratio of 5% or lower (almost no effect))
